Measured values: patent publication US4328215A, “Method of reducing or avoiding the mutagenic activity of drugs” (The Johns Hopkins University, priority 1977, dated 1982)
Several values for one entry are separate records, joined by “and”; a condition that tells them apart may be missing. Identical values can stand only once.

Key:
[1] = tested on: Schistosoma mansoni; assay: Antischistosomal activity in infected mice; format: in vivo
[2] = Conversion of CGP 4540 to mutagenic metabolite by route; format: in vivo; details: oral vs injected intramuscularly or intravenously
[3] = Thin layer chromatography of urine extracts for mutagenic metabolite; format: in vivo, rats
[4] = tested on: bile ducts and the liver; assay: Acute hepatotoxic effects; format: in vivo
Excerpt: A further advantage of the invention is that, at least in some instances, acute hepatotoxic effects resulting from use of an antischistosomal or other drug and caused by a metabolic product, may be prevented. […] Accordingly, in this particular situation the administration of the antibacterial agent not only prevents the mutagenic effects of a metabolic product of the intestinal bacterial flora but also the acute hepatotoxic effects which might otherwise be encountered.

[5] = tested on: Salmonella typhimurium; assay: Mutagenic activity of urines of treated germ-free and conventional rats (Ames); format: in vivo; details: for Revertants in excess of controls excreted in 24 hrs: 250 mg/kg oral
Experimental: Urine analysis (referred to above as the "Ames" test).
The schistosomicide 4-nitro-4'-[…] diphenylamine (CGP 4540) was orally administered to two germ-free rats and two conventional male Fisher rats weighing 220-240 grams. Urines from the thus treated animals were analyzed for mutagenic activity and assays were carried out as described in Journal of Pharmacology and Experimental Therapeutics, 200, 1-9 (1977) using the methodology of Ames et al (Mutat. Res., 31, 347-364). The mutagenic activities of the urines were determined in both the absence and presence of S9 (hepatic microsomal) fractions of phenobarbital pretreated rats (Ames et al, Proc. Nat. Acad. Sci, U.S.A., 71, 737-741, 1974) without and with preincubation with β-glucuronidase.
For test purposes, the isothiocyanate derivative was dissolved at 40° C. in a polyethoxylated vegetable oil (Emulphor El 620) to a final concentration of 50 mg/ml. Following sterilization by means of millipore filtration the mixture was administered by gastric intubation to two germ-free and two conventional male Fisher rats (weighing 220 to 240 gms) at a dose of 250 mg/kg of the isothiocyanate. One germ-free and one conventional rat that were given the filtered vehicle without the drug served as controls. The urines of each animal were collected for a period of 48 hours subsequent to administration of the drug or the filtered vehicle.
The germ-free rats used in the tests were kept in Tresder type plastic isolators. After administration of the isothiocyanate or the vehicle the germ-free rats were transferred into individual metabolism cages in the isolators.
The mutagenic activity determined for the test animals, expressed in terms of revertants in excess of the controls, is shown below: […]

[6] = tested on: S. typhimurium TA 100
[7] = tested on: Schistosoma mansoni; assay: Antischistosomal activity in infected mice; format: in vivo; remark: listed apart in the source
Experimental: Six groups of test mice, infected with Schistosoma mansoni, were treated as follows:
(1) a single dose of formulated CGP 4540 (10 mg/kg) with no antibiotic administered;
(2) single dose of formulated CGP 4540 as in (1) but preceded by 100 mg/kg of erythromycin (base);
(4) same as (1) but using a CGP 4540 dosage of 15 mg/kg;
(5) same as (4) but preceded by a 100 mg/kg dose of erythromycin; and
All drugs were administered by gastric intubation.

[8] = tested on: Salmonella typhimurium Strain TA 100; assay: Urine analysis (Ames test) of mice treated with CGP 4540, strain TA 100, with/without S9;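 further: mouse urine gathered in 24 h periods after drug dosing, 0.1 and 0.25 ml aliquots plated on the bacteria, plates counted following 48 h at 37 °C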
Experimental: Mice are placed into a metabolism cage and control urines are collected on ice for 24 hours. These animals are then treated with the drug and urine is collected in refrigerated containers for the two subsequent 24-hour periods. The volume of the urine is measured and the urine is stored at -80° C. until assayed.
Urine specimens are thawed, centrifuged at 10,000×g for 15 minutes and sterilized by filtration through a 0.22 μm Millipore filter. Effects of 0.1 and 0.25 ml aliquots are tested on strains TA 100 with and without added S9 microsomal fraction. Plates are counted after incubation at 37° C. for 48 hours. The dose response at these two urine concentrations is used to calculate the number of revertants induced by the total volume of urine excreted in 24 hours. […] Aliquots of this mixture are tested after adjustment to pH 7 in the absence and the presence of the S9 fraction.
The mice were infected with S. typhimurium TA 100 as the test strain and the CGP 4540 was formulated as in Example 1. […] Three control mice were employed.

[9] = CGP 4540 10 mg/kg single dose, no antibiotic, 196 mice, 10 mg/kg
[10] = CGP 4540 10 mg/kg, bacitracin 440 mg/kg
[11] = CGP 4540 10 mg/kg, erythromycylamine 100 mg/kg
[12] = CGP 4540 10 mg/kg, succinylsulfathiazole 1 g/kg + bacitracin 220 mg/kg
[13] = CGP 4540 15 mg/kg, erythromycin (base) 100 mg/kg
[14] = CGP 4540 15 mg/kg, erythromycylamine 100 mg/kg
[15] = CGP 4540 15 mg/kg, no antibiotic
[16] = CGP 4540 20 mg/kg, bacitracin 440 mg/kg
[17] = CGP 4540 20 mg/kg, no antibacterial
[18] = CGP 4540 20 mg/kg, succinylsulfathiazole 1 g/kg + bacitracin 220 mg/kg
[19] = succinylsulfathiazole 1 g/kg once daily for 3 days before CGP 4540
[20] = CGP 4540 10 mg/kg, erythromycin (base) 100 mg/kg

O=[N+]([O-])c1ccc(Nc2ccc(N=C=S)cc2)cc1 [CGP 4540]
Reduction in number of worms ([1]; CGP 4540 10 mg/kg single dose, no antibiotic, 196 mice): 99% | Mice with parasitological cures [1, 9]: 96% | Mice with parasitological cures [1, 10]: 88% | Reduction in no. of worms [1, 10]: 98% | Mice with parasitological cures [1, 11]: 100% | Mice with parasitological cures [1, 12]: 92% | Reduction in no. of worms [1, 12]: 99% | Mice with parasitological cures [1, 13]: 100% | Reduction in number of worms [1, 13]: 100% | Mice with parasitological cures [1, 14]: 100% | Mice with parasitological cures [1, 15]: 100% | Reduction in number of worms [1, 15]: 100% | Mice with parasitological cures [1, 16]: 100% | Reduction in no. of worms [1, 16]: 100% | Mice with parasitological cures [1, 17]: 100% | Reduction in no. of worms [1, 17]: 100% | Mice with parasitological cures [1, 18]: 100% | Reduction in no. of worms [1, 18]: 100% | Curative antischistosomal activity after preceding antibiotic treatment ([1]; erythromycin base or erythromycylamine): not reduced | Effectiveness against schistosomiasis, oral vs intramuscular ([1]; formulated CGP 4540, oral and intramuscular): about equally effective | Antischistosomal activity after reduction of bacterial flora ([1]; succinylsulfathiazole 1 g/kg once daily for 3 days, oral): do not appear to affect the antischistosomal activity | Increase in conversion to mutagenic metabolite, oral vs intramuscular or intravenous [2]: 50% | Spot with Rf similar to isolated mutagenic metabolite in urine extract ([3]; conventional rats, 250 mg/kg oral, urine 0 to 24 hours): recognizable | Spot with Rf similar to isolated mutagenic metabolite in urine extract ([3]; germ-free rats): No such spot appeared | Lesions in bile ducts and liver ([4]; 500 mg/kg (50 times the curative dose)): some destructive lesions may be produced in the bile ducts and the liver | Lesions in bile ducts and liver with antibacterial agent ([4]; 500 mg/kg, co-administration of erythromycin): these lesions are prevented | Mutagenic activity after incubation of urines with β-glucuronidase ([5]; 3 hrs at 37° C., conventional rats): No further increase in mutagenic activity | Revertants in excess of controls excreted in 24 hrs ([5]; conventional rats, urine 0-24 hrs, +S9, 250 mg/kg): 4,900 revertants excreted in 24 hrs and 5,000 revertants excreted in 24 hrs | Revertants in excess of controls excreted in 24 hrs ([5]; conventional rats, urine 0-24 hrs, -S9, 250 mg/kg): 3,800 revertants excreted in 24 hrs and 3,750 revertants excreted in 24 hrs | Revertants in excess of controls excreted in 24 hrs ([5]; conventional rats, urine 24-48 hrs, +S9, 250 mg/kg): 2,800 revertants excreted in 24 hrs and 3,050 revertants excreted in 24 hrs | Revertants in excess of controls excreted in 24 hrs ([5]; conventional rats, urine 24-48 hrs, -S9, 250 mg/kg): 1,600 revertants excreted in 24 hrs and 1,200 revertants excreted in 24 hrs | Revertants in excess of controls excreted in 24 hrs ([5]; germ-free rats, urine 0-24 hrs, +S9): 0 revertants excreted in 24 hrs | Revertants in excess of controls excreted in 24 hrs ([5]; germ-free rats, urine 0-24 hrs, -S9): 0 revertants excreted in 24 hrs | Revertants in excess of controls excreted in 24 hrs ([5]; germ-free rats, urine 24-48 hrs, +S9): 0 revertants excreted in 24 hrs | Revertants in excess of controls excreted in 24 hrs ([5]; germ-free rats, urine 24-48 hrs, -S9): 0 revertants excreted in 24 hrs | Urinary mutagenic metabolite in germ-free rats ([5]; urines of germ-free rats (1) and (2)): no mutagenic metabolite was detectable | Mutagenic activity in the host mediated assay ([6]; in vivo, po): no mutagenic activity was detectable | Mutant colonies found in the host-mediated assay [6, 19]: very marked decrease | Mice with parasitological cures [7, 9]: 95% | Mice with parasitological cures [7, 20]: 100% | Reduction in number of worms [7, 20]: 100% | Reduction in number of worms [7, 11]: 100% | Reduction in number of worms [7, 14]: 100% | Schistosomicidal activity of single low doses with or without antibacterial agents ([7]; single low doses, with vs without antibacterial agents): nearly or equally as effective | Urine revertants in excess of controls ([8]; CGP 4540 100 mg/kg oral, no pretreatment, day 1, +S9): 239 revertants per total 24 hour u | Urine revertants in excess of controls ([8]; CGP 4540 100 mg/kg oral, no pretreatment, day 1, no S9): 56 revertants per total 24 hour u | Urine revertants in excess of controls ([8]; CGP 4540 100 mg/kg oral, no pretreatment, day 2, +S9): 30 revertants per total 24 hour u | Urine revertants in excess of controls ([8]; CGP 4540 100 mg/kg oral, no pretreatment, day 2, no S9): 11 revertants per total 24 hour u | Urine revertants in excess of controls ([8]; CGP 4540 100 mg/kg oral, succinylsulfathiazole 1 g/kg, day 1, +S9): 108 revertants per total 24 hour u | Urine revertants in excess of controls ([8]; CGP 4540 100 mg/kg oral, succinylsulfathiazole 1 g/kg, day 1, no S9): 37 revertants per total 24 hour u | Urine revertants in excess of controls ([8]; CGP 4540 100 mg/kg oral, succinylsulfathiazole 1 g/kg, day 2, +S9): 12 revertants per total 24 hour u | Urine revertants in excess of controls ([8]; CGP 4540 100 mg/kg oral, succinylsulfathiazole 1 g/kg, day 2, no S9): 0 revertants per total 24 hour u | Urine revertants in excess of controls ([8]; CGP 4540 250 mg/kg oral, bacitracin 220 mg/kg, day 1, +S9): 96 revertants per total 24 hour u | Urine revertants in excess of controls ([8]; CGP 4540 250 mg/kg oral, bacitracin 220 mg/kg, day 1, no S9): 31 revertants per total 24 hour u | Urine revertants in excess of controls ([8]; CGP 4540 250 mg/kg oral, bacitracin 220 mg/kg, day 2, +S9): 10 revertants per total 24 hour u | Urine revertants in excess of controls ([8]; CGP 4540 250 mg/kg oral, bacitracin 220 mg/kg, day 2, no S9): 4 revertants per total 24 hour u | Urine revertants in excess of controls ([8]; CGP 4540 250 mg/kg oral, bacitracin 440 mg/kg, day 1, +S9): 0 revertants per total 24 hour u | Urine revertants in excess of controls ([8]; CGP 4540 250 mg/kg oral, bacitracin 440 mg/kg, day 1, no S9): 0 revertants per total 24 hour u | Urine revertants in excess of controls ([8]; CGP 4540 250 mg/kg oral, bacitracin 440 mg/kg, day 2, +S9): 0 revertants per total 24 hour u | Urine revertants in excess of controls ([8]; CGP 4540 250 mg/kg oral, bacitracin 440 mg/kg, day 2, no S9): 0 revertants per total 24 hour u | Urine revertants in excess of controls ([8]; CGP 4540 250 mg/kg oral, erythromycin base 100 mg/kg, day 1, +S9): 0 revertants per total 24 hour u | Urine revertants in excess of controls ([8]; CGP 4540 250 mg/kg oral, erythromycin base 100 mg/kg, day 1, no S9): 0 revertants per total 24 hour u | Urine revertants in excess of controls ([8]; CGP 4540 250 mg/kg oral, erythromycin base 100 mg/kg, day 2, +S9): 0 revertants per total 24 hour u | Urine revertants in excess of controls ([8]; CGP 4540 250 mg/kg oral, erythromycin base 100 mg/kg, day 2, no S9): 0 revertants per total 24 hour u | Urine revertants in excess of controls ([8]; CGP 4540 250 mg/kg oral, no pretreatment, day 1, +S9): 541 revertants per total 24 hour u | Urine revertants in excess of controls ([8]; CGP 4540 250 mg/kg oral, no pretreatment, day 1, no S9): 120 revertants per total 24 hour u | Urine revertants in excess of controls ([8]; CGP 4540 250 mg/kg oral, no pretreatment, day 2, +S9): 89 revertants per total 24 hour u | Urine revertants in excess of controls ([8]; CGP 4540 250 mg/kg oral, no pretreatment, day 2, no S9): 32 revertants per total 24 hour u | Urine revertants in excess of controls ([8]; CGP 4540 250 mg/kg oral, succinylsulfathiazole 1 g/kg + bacitracin 220 mg/kg, day 1, +S9): 0 revertants per total 24 hour u | Urine revertants in excess of controls ([8]; CGP 4540 250 mg/kg oral, succinylsulfathiazole 1 g/kg + bacitracin 220 mg/kg, day 1, no S9): 0 revertants per total 24 hour u | Urine revertants in excess of controls ([8]; CGP 4540 250 mg/kg oral, succinylsulfathiazole 1 g/kg + bacitracin 220 mg/kg, day 2, +S9): 0 revertants per total 24 hour u | Urine revertants in excess of controls ([8]; CGP 4540 250 mg/kg oral, succinylsulfathiazole 1 g/kg + bacitracin 220 mg/kg, day 2, no S9): 0 revertants per total 24 hour u | Urine revertants in excess of controls ([8]; CGP 4540 250 mg/kg oral, succinylsulfathiazole 1 g/kg, day 1, +S9): 269 revertants per total 24 hour u | Urine revertants in excess of controls ([8]; CGP 4540 250 mg/kg oral, succinylsulfathiazole 1 g/kg, day 1, no S9): 73 revertants per total 24 hour u | Urine revertants in excess of controls ([8]; CGP 4540 250 mg/kg oral, succinylsulfathiazole 1 g/kg, day 2, +S9): 30 revertants per total 24 hour u | Urine revertants in excess of controls ([8]; CGP 4540 250 mg/kg oral, succinylsulfathiazole 1 g/kg, day 2, no S9): 7 revertants per total 24 hour u | Mutagenic urinary metabolite [8, 19]: very marked decrease
